Patent publication US20250025438A1, “Derivative of aspartic acid and use thereof in treatment of metabolic diseases such as hepatic fibrosis and non-alcoholic hepatitis” (SHENZHEN JINGTAI TECHNOLOGY CO., LTD., priority 2021, published 2025)
Structures can show the parent of a compound that is named as a salt. Where a SMILES comes first, the peptide text is derived from it.

What was measured:
Assay type in all cases: cell-based
COL1A1 = test: In vitro efficacy in semi-activated LX2 cells, qPCR: COL1A1; conditions: Homo sapiens, 48 hours, Q-PCR, read-out: COL1A1 mRNA inhibition rate; for inhibition at 50 µM: LX-2, 50 µM; for inhibition at 25 µM: LX-2, test concentration 25 μM
TNF-α [1] = test: In vitro efficacy in semi-activated LX2 cells, qPCR: TNF-α; conditions: Homo sapiens, 48 hours, Q-PCR, read-out: TNF-α mRNA inhibition rate
COL3A1 = test: In vitro efficacy in semi-activated LX2 cells, qPCR: COL3A1; conditions: Homo sapiens, 48 hours, Q-PCR, read-out: COL3A1 mRNA inhibition rate; for inhibition at 50 µM: LX-2, 50 µM; for inhibition at 25 µM: LX-2, test concentration 25 μM
Smad3 = test: In vitro efficacy in semi-activated LX2 cells, qPCR: Smad3; conditions: Homo sapiens, 48 hours, Q-PCR, read-out: Smad3 mRNA inhibition rate
Procedure, shortened: (§1)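 LX-2 human hepatic stellate cells were plated, allowed to adhere for 12 hours, then exposed to test compound at 50 µM for 48 hours. Total RNA was extracted, reverse-transcribed to cDNA, and target mRNA quantified by SYBR Green qPCR using the relative quantification method.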

IL-1β = test: In vitro efficacy in semi-activated LX2 cells, qPCR: IL-1β; conditions: Homo sapiens, 48 hours, Q-PCR, read-out: IL-1β mRNA inhibition rate; for inhibition at 25 µM: LX-2, test concentration 25 μM
COL1A2 [2] = test: In vitro efficacy in semi-activated LX2 cells, qPCR: COL1A2; conditions: Homo sapiens, 48 hours, Q-PCR, read-out: COL1A2 mRNA inhibition rate; for inhibition at 25 µM: LX-2, test concentration 25 μM
[3] = system: collagen I and collagen III; test: Semi-activated LX2 cells, qPCR: collagen I and collagen III at the mRNA level; conditions: 48 hours, Q-PCR, Table 2
Procedure, shortened: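 LX-2 human hepatic stellate cells, adhered 12 h, were treated with 50 µM test compound for 48 h. Total RNA was extracted, and COL1A1, COL1A2 and COL3A1 mRNA were measured by SYBR Green qPCR.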

[4] = system: liver fibrosis-related genes; test: Semi-activated LX2 cells, qPCR: liver fibrosis-related genes overall; conditions: 48 hours, Q-PCR, Table 2
Procedure: (§2) Test compounds were added to the LX-2 cells respectively, and total RNA in the cells was extracted 48 hours later. This experiment was performed strictly in accordance with the instructions of the Total RNA Kit. The steps were as follows (note: this experiment was performed on ice throughout the entire process, and special RNase-free tips were used throughout the entire process): • 1) The 12-well cell culture plate was taken out from the incubator, the cell culture medium was discarded, the cells were washed twice with 1 mL of 1×PBS, and a negative pressure suction device was used to fully remove PBS; • 2) 350 μL of TRK Lysis Buffer mixture/well was prepared as needed (mixture preparation method: 1 mL of TRKLysis Buffer+20 μL of β-mercaptoethanol), vortexed and mixed well. 350 μL was added to each well of the 12-well cell culture plate, and allowed to stand at room temperature for 5 minutes to fully lyse the cells; • 3) 70% ethanol/well was prepared as needed, vortexed and mixed well. 350 μL was added to each well of the 12-well cell culture plate, mixed well by shaking, and transferred to the spin column (spin column+collection tube were assembled); • 4) Centrifugation was performed at 4° C., 12000 g for 60 sec. The waste liquid was discarded after centrifugation, while the spin column was kept; • 5) 500 μL of RNA Wash Buffer I was added, centrifuged at 4° C., 12000 g for 60 sec, the waste liquid was discarded after centrifugation, and the collection column was kept; • 6) 500 μL of RNA Wash Buffer II (confirmed that ethanol had been added) was added, centrifuged at 4° C., 12000 g for 60 sec, the waste liquid was discarded after centrifugation, and the collection column was kept; • 7) step 6) was repeated once again, centrifugation was performed at 4° C., 12000 g for 90 sec, the waste liquid was discarded after centrifugation, and the collection column was kept; • 8) Centrifugation was performed at 4° C., 12000 g for 120 sec to ensure that the spin column was fully dried; • 9) The dried spin column was inserted into a new 1.5 mL EP tube, and 30 μL of DEPC water was added to the membrane in the center of the spin column. It should be careful not to touch the EP tube cover in this step. It was allowed to stand at room temperature for 5 minutes to ensure that the RNA was fully dissolved in DEPC water. Centrifugation was performed at 4° C., 12000 g for 60 sec, and the EP tube was kept; • 10) NanoDrop ultra-micro-volume spectrophotometer was used to detect RNA concentration;
(§3) 5.3 Q-PCR detection of target gene expression: According to the instructions of Power SYBR® Green PCR Master Mix, the specific operations were as follows:
(§4) LX2 cells were passaged and plated normally. After adherent growth for 12 hours, 50 µM of the test compound was added. After 48 hours, the cells were collected, total RNA was extracted, and Q-PCR was used to detect the changes in the mRNA expression levels of liver fibrosis-related genes (ACTA2 encoding α-SMA, COL1A1 and COLIA2 encoding collagen I, COL3A1 encoding collagen III, SMAD3 encoding Smad3) and inflammation-related genes (IL1β encoding IL-1β, TNFα encoding TNFα) (for specific methods, see 5. Q-PCR detection of target gene expression as described above). α-SMA was a marker of hepatic stellate cell activation, and collagen I and collagen III were the main components of extracellular matrix deposition.

α-SMA [5] = test: Semi-activated LX2 cells, Western blot: α-SMA protein; conditions: 50-400 μM, 48 hours, FIG. 2, vs 50 μM aspartic acid
TNF-α [6] = test: In vitro efficacy in semi-activated LX2 cells, qPCR: TNF-α; conditions: Homo sapiens, LX-2, 48 hours, Q-PCR, read-out: TNF-α mRNA inhibition rate
Procedure: as §2
(§5) 5.2 Reverse transcription of RNA into cDNA: According to the instructions of PrimeScript™ RT reagent Kit (Perfect Real Time), the specific experimental steps were as follows:
as §3
(§6) After the reaction was completed, the amplification curve and dissolution curve of Q-PCR were confirmed, and the relative quantification method ([…]) was used to perform data analysis on the experimental results.
as §4

NS3TP1 = test: Regulation of NS3TP1 in semi-activated LX2 cells, qPCR; conditions: LX-2 cells, 48 hours, Q-PCR, vs control group
Procedure: as §2, §5, §3, §6
LX2 cells were passaged and plated normally. […] After 48 hours, the cells were collected, total RNA was extracted, and the expression of NS3TP1 gene was detected using Q-PCR method.

collagen I = test: Activated LX2 cells (TGFβ1), Western blot: Collagen I; conditions: LX2 cells stimulated with TGFβ1 (5 ng/mL), 24 hours, FIG. 4
α-SMA [7] = test: Activated LX2 cells (TGFβ1), Western blot: α-SMA; conditions: LX2 cells stimulated with TGFβ1 (5 ng/mL), 24 hours, FIG. 4
α-SMA [8] = test: In vitro efficacy in semi-activated LX2 cells, qPCR: α-SMA; conditions: test concentration 25 μM, 48 hours, Q-PCR, read-out: α-SMA mRNA inhibition rate
Procedure, shortened: as §1

FN = test: Semi-activated LX2 cells, Western blot: FN protein; conditions: 50-400 μM, 48 hours, FIG. 3, vs 50 μM aspartic acid
COL1A2 [9] = test: In vitro efficacy in semi-activated LX2 cells, qPCR: COL1A2; conditions: Homo sapiens, LX-2, 48 hours, Q-PCR, read-out: COL1A2 mRNA inhibition rate
Procedure: as §2, §5, §3, §6, §4

[10] = LX-2, test concentration 12.5 μM

Which results are given for `CN[C@@H](CC(=O)O)C(=O)O` [Compound 3]?
inhibition at 12.5 µM (COL1A1; [10]): 25 to 50%; inhibition at 12.5 µM (TNF-α [1]; [10]): 1 to 10%; inhibition at 12.5 µM (COL3A1; [10]): 1 to 10%; inhibition at 12.5 µM (Smad3; [10]): 1 to 10%; inhibition at 12.5 µM (IL-1β; [10]): 1 to 10%; inhibition at 12.5 µM (COL1A2 [2]; [10]): 1 to 10%

With `COC(=O)[C@H](Cc1ccccc1)NC(=O)[C@@H](N)CC(=O)O` [Compound 48] (HELM PEPTIDE1{D.F.[CO[*:1]]}$$$$V2.0) as the compound, how does the inhibition at 50 µM (COL1A1) read?
Its inhibition at 50 µM is 25 to 50%.

What about the “inhibition of the expression of collagen I and collagen III at the mRNA level” value [3] of the same compound?
The value was “could inhibit”.

And the inhibition at 50 µM (COL3A1)?
Its inhibition at 50 µM is 10 to 25%.

And the “inhibition of the mRNA expression levels of liver fibrosis-related genes (overall)” value [4]?
Its value is “stronger effects”.

What about the “inhibitory effect on α-SMA protein as compared to ASP” value (α-SMA [5]) of the same compound?
Its value is “stronger inhibitory effects”.

What about the inhibition at 50 µM (TNF-α [6]) of the same compound?
The inhibition at 50 µM was 1 to 10%.

With `COC(=O)C[C@H](N)C(=O)OCCOC(=O)C[C@H](N)C(=O)OC` [Compound 78a, 4-(2-(S)-2-amino-4-methoxy-4-oxobutyryl)ethyl)1-methyl L-aspartic acid ester hydrochloride] as the compound, how does the “Up-regulation of NS3TP1” value (NS3TP1; test concentration 12.5 μM) read?
Its value is “C (C represented that the up-regulation was 1~20%)”.

And the “expression of Collagen I in the cells” value (collagen I)?
Its value is “significantly decreased”.

What about the “expression of α-SMA in the cells” value (α-SMA [7]) of the same compound?
Its value is “significantly decreased”.

Which inhibition at 25 µM (COL1A1) does the source give for `N[C@@H](CC(=O)OCOC(=O)C[C@H](N)C(=O)O)C(=O)O` [Compound 55, (2S,2'S)-4,4′-(methylenebis (oxy))bis (2-amino-4-oxobutyric acid) hydrochloride] here?
Its inhibition at 25 µM is 1 to 10%.

What about the inhibition at 25 µM (COL3A1) of the same compound?
Its inhibition at 25 µM is 1 to 10%.

What about the inhibition at 25 µM (IL-1β) of the same compound?
Its inhibition at 25 µM is 1 to 10%.

And the inhibition at 25 µM (COL1A2 [2])?
The inhibition at 25 µM was 1 to 10%.

What about the inhibition at 25 µM (α-SMA [8]) of the same compound?
Its inhibition at 25 µM is 1 to 10%.

With `N[C@@H](CS(=O)O)C(=O)O` [Compound 46] as the compound, how does the inhibition at 25 µM (COL1A2 [2]) read?
Its inhibition at 25 µM is 1 to 10%.

How did the inhibition at 50 µM (COL1A1) turn out when `CC(C)OC(=O)OCOC(=O)C[C@H](N)C(=O)O` [Compound 52, 4-(((isopropoxycarbonyl)oxy)methyl) L-aspartic acid ester hydrochloride] was run?
Its inhibition at 50 µM is 25 to 50%.

What about the “inhibition of the expression of collagen I and collagen III at the mRNA level” value [3] of the same compound?
The value was “could inhibit”.

What about the inhibition at 50 µM (COL3A1) of the same compound?
The inhibition at 50 µM was 25 to 50%.

What about the “inhibition of the mRNA expression levels of liver fibrosis-related genes (overall)” value [4] of the same compound?
Its value is “stronger effects”.

And the “inhibitory effect on FN protein expression as compared to ASP” value (FN)?
Its value is “stronger inhibitory effects”.

What about the “inhibitory effect on α-SMA protein as compared to ASP” value (α-SMA [5]) of the same compound?
Its value is “stronger inhibitory effects”.

What about the inhibition at 50 µM (COL1A2 [9]) of the same compound?
Its inhibition at 50 µM is 1 to 10%.

Which results are given for `C[S+]([O-])C[C@H](N)C(=O)O` (stereo partly drawn) [Compound 45]?
inhibition at 25 µM (COL1A1): 1 to 10%; inhibition at 25 µM (TNF-α [1]; LX-2, test concentration 25 μM): 1 to 10%; inhibition at 25 µM (COL3A1): 1 to 10%; inhibition at 25 µM (Smad3; LX-2, test concentration 25 μM): 1 to 10%; inhibition at 25 µM (IL-1β): 1 to 10%; inhibition at 25 µM (COL1A2 [2]): 1 to 10%; inhibition at 25 µM (α-SMA [8]): 1 to 10%

Which results are given for `COC(=O)C[C@H](N)C(=O)OCCOC(=O)[C@@H](N)CC(=O)OC` [Compound 77a, O′1,O1-(ethan-1,2-diyl)4-dimethyl (2S,2'S)-bis (2-aminosuccinate) hydrochloride]?
Up-regulation of NS3TP1 (NS3TP1; 200 µM compound): C (C represented that the up-regulation was 1~20%); expression of Collagen I in the cells (collagen I): significantly decreased; expression of α-SMA in the cells (α-SMA [7]): significantly decreased

What does the source list for `CC(C)OC(=O)[C@@H](N)CC(=O)O` [Compound 50, 1-isopropyl L-aspartic acid ester hydrochloride]?
inhibition at 50 µM (COL1A1): 25 to 50%; inhibition of the expression of collagen I and collagen III at the mRNA level [3]: could inhibit; inhibition at 50 µM (COL3A1): 1 to 10%; inhibitory effect on FN protein expression as compared to ASP (FN): stronger inhibitory effects
